Data taken from patent US20240138411A1, “METHOD OF […] OF SUGARCANE” (CORTEVA AGRISCIENCE LLC, priority 2021, published 2024).

Tested on: sugarcane
Test: Sugarcane flowering inhibition field trials, floral induction rated on UFSCar scale
Format: in vivo
Protocol: In order to explore the activity of florpyrauxifen as flowering inhibitor in sugarcane, field studies were carried out. Florpyrauxifen-benzyl was tested at rates from 2 to 20 grams active ingredient per hectare (g ai/ha) and compared to Ethrel® 720 (Bayer), the standard treatment. The flowering inhibition effect was assessed by checking the floral induction in sugarcane through the percentage scale recommended by UFSCar (Federal University of Sao Carlos, Sao Paulo, Brazil).
Four trials were carried out in sugarcane where florpyrauxifen-benzyl (Rinskor®), applied at a rate of 2 to 20 g ai/ha, was compared to ethephon (Ethrel® 720) applied at a rate of 475 g ai/ha. Control plots of untreated sugarcane were also evaluated. Rinskor® and Ethrel® 720 were diluted in water and a single application for each study (backpack sprayer) was performed delivering 50 L of spray solution per ha at the reproductive stage of sugarcane and at a maximum 150 days before harvest. The activity of florpyrauxifen-benzyl as a flowering inhibitor was measured via assessments (Scale of flowering inhibition—see chart 1) performed at 0, 14, 30, 45, 60, 75, 90, 120, 150 days after application, or up to harvest time. The assessments were measured in sugarcane stems, rating the flowering induction according to the UFSCar scale shown below. Significance of treatment effect was evaluated with F-approximate test (α=0.1) and least square means from different treatments were compared with Tukey's test.

COc1c(Cl)ccc(-c2nc(C(=O)OCc3ccccc3)c(Cl)c(N)c2F)c1F [Rinskor, florpyrauxifen-benzyl]
67.5%: Frequency 2/1 (15%) (Table 1, 75 DAA, 15 g ai/ha)
12.8%: % Referring to Scale (Table 1, 120 DAA, 5 g ai/ha)
85.0%: Frequency 2/1 (15%) (Table 1, 75 DAA, 2 g ai/ha) | Frequency 2/1 (15%) (Table 1, 120 DAA, 5 g ai/ha)
14.6%: % Referring to Scale (Table 1, 75 DAA, 5 g ai/ha)
13.5%: % Referring to Scale (Table 1, 75 DAA, 2 g ai/ha) | % Referring to Scale (Table 1, 90 DAA, 20 g ai/ha)
30.0%: Frequency 1/1 (0%) (Table 1, 75 DAA, 20 g ai/ha)
10.5%: % Referring to Scale (Table 1, 75 DAA, 20 g ai/ha)
13.9%: % Referring to Scale (Table 1, 90 DAA, 15 g ai/ha) | % Referring to Scale (Table 1, 120 DAA, 2 g ai/ha) | % Referring to Scale (Table 1, 120 DAA, 10 g ai/ha) | % Referring to Scale (Table 1, 120 DAA, 15 g ai/ha)
10.1%: % Referring to Scale (Table 1, 75 DAA, 15 g ai/ha)
80.0%: Frequency 2/1 (15%) (Table 1, 90 DAA, 20 g ai/ha)
0.0%: Frequency 4/1 (50%) (Table 1, 75 DAA, 2 g ai/ha) | Frequency 4/2 (80%) (Table 1, 75 DAA, 2 g ai/ha) | Frequency 4/3 (90%) (Table 1, 75 DAA, 2 g ai/ha) | Frequency 4/4 (100%) (Table 1, 75 DAA, 2 g ai/ha) | Frequency 4/1 (50%) (Table 1, 75 DAA, 5 g ai/ha) | Frequency 4/2 (80%) (Table 1, 75 DAA, 5 g ai/ha) | Frequency 4/3 (90%) (Table 1, 75 DAA, 5 g ai/ha) | Frequency 4/4 (100%) (Table 1, 75 DAA, 5 g ai/ha) | Frequency 3/1 (30%) (Table 1, 75 DAA, 10 g ai/ha) | Frequency 4/1 (50%) (Table 1, 75 DAA, 10 g ai/ha) | Frequency 4/2 (80%) (Table 1, 75 DAA, 10 g ai/ha) | Frequency 4/3 (90%) (Table 1, 75 DAA, 10 g ai/ha) | Frequency 4/4 (100%) (Table 1, 75 DAA, 10 g ai/ha) | Frequency 3/1 (30%) (Table 1, 75 DAA, 15 g ai/ha) | Frequency 4/1 (50%) (Table 1, 75 DAA, 15 g ai/ha) | Frequency 4/2 (80%) (Table 1, 75 DAA, 15 g ai/ha) | Frequency 4/3 (90%) (Table 1, 75 DAA, 15 g ai/ha) | Frequency 4/4 (100%) (Table 1, 75 DAA, 15 g ai/ha) | Frequency 3/1 (30%) (Table 1, 75 DAA, 20 g ai/ha) | Frequency 4/1 (50%) (Table 1, 75 DAA, 20 g ai/ha) | Frequency 4/2 (80%) (Table 1, 75 DAA, 20 g ai/ha) | Frequency 4/3 (90%) (Table 1, 75 DAA, 20 g ai/ha) | Frequency 4/4 (100%) (Table 1, 75 DAA, 20 g ai/ha) | Frequency 3/1 (30%) (Table 1, 90 DAA, 2 g ai/ha) | Frequency 4/1 (50%) (Table 1, 90 DAA, 2 g ai/ha) | Frequency 4/2 (80%) (Table 1, 90 DAA, 2 g ai/ha) | Frequency 4/3 (90%) (Table 1, 90 DAA, 2 g ai/ha) | Frequency 4/4 (100%) (Table 1, 90 DAA, 2 g ai/ha) | Frequency 3/1 (30%) (Table 1, 90 DAA, 5 g ai/ha) | Frequency 4/1 (50%) (Table 1, 90 DAA, 5 g ai/ha) | Frequency 4/2 (80%) (Table 1, 90 DAA, 5 g ai/ha) | Frequency 4/3 (90%) (Table 1, 90 DAA, 5 g ai/ha) | Frequency 4/4 (100%) (Table 1, 90 DAA, 5 g ai/ha) | Frequency 4/1 (50%) (Table 1, 90 DAA, 10 g ai/ha) | Frequency 4/2 (80%) (Table 1, 90 DAA, 10 g ai/ha) | Frequency 4/3 (90%) (Table 1, 90 DAA, 10 g ai/ha) | Frequency 4/4 (100%) (Table 1, 90 DAA, 10 g ai/ha) | Frequency 3/1 (30%) (Table 1, 90 DAA, 15 g ai/ha) | Frequency 4/1 (50%) (Table 1, 90 DAA, 15 g ai/ha) | Frequency 4/2 (80%) (Table 1, 90 DAA, 15 g ai/ha) | Frequency 4/3 (90%) (Table 1, 90 DAA, 15 g ai/ha) | Frequency 4/4 (100%) (Table 1, 90 DAA, 15 g ai/ha) | Frequency 4/1 (50%) (Table 1, 90 DAA, 20 g ai/ha) | Frequency 4/2 (80%) (Table 1, 90 DAA, 20 g ai/ha) | Frequency 4/3 (90%) (Table 1, 90 DAA, 20 g ai/ha) | Frequency 4/4 (100%) (Table 1, 90 DAA, 20 g ai/ha) | Frequency 3/1 (30%) (Table 1, 120 DAA, 2 g ai/ha) | Frequency 4/1 (50%) (Table 1, 120 DAA, 2 g ai/ha) | Frequency 4/2 (80%) (Table 1, 120 DAA, 2 g ai/ha) | Frequency 4/3 (90%) (Table 1, 120 DAA, 2 g ai/ha) | Frequency 4/4 (100%) (Table 1, 120 DAA, 2 g ai/ha) | Frequency 3/1 (30%) (Table 1, 120 DAA, 5 g ai/ha) | Frequency 4/1 (50%) (Table 1, 120 DAA, 5 g ai/ha) | Frequency 4/2 (80%) (Table 1, 120 DAA, 5 g ai/ha) | Frequency 4/3 (90%) (Table 1, 120 DAA, 5 g ai/ha) | Frequency 4/4 (100%) (Table 1, 120 DAA, 5 g ai/ha) | Frequency 3/1 (30%) (Table 1, 120 DAA, 10 g ai/ha) | Frequency 4/1 (50%) (Table 1, 120 DAA, 10 g ai/ha) | Frequency 4/2 (80%) (Table 1, 120 DAA, 10 g ai/ha) | Frequency 4/3 (90%) (Table 1, 120 DAA, 10 g ai/ha) | Frequency 4/4 (100%) (Table 1, 120 DAA, 10 g ai/ha) | Frequency 3/1 (30%) (Table 1, 120 DAA, 15 g ai/ha) | Frequency 4/1 (50%) (Table 1, 120 DAA, 15 g ai/ha) | Frequency 4/2 (80%) (Table 1, 120 DAA, 15 g ai/ha) | Frequency 4/3 (90%) (Table 1, 120 DAA, 15 g ai/ha) | Frequency 4/4 (100%) (Table 1, 120 DAA, 15 g ai/ha)
12.5%: Frequency 1/1 (0%) (Table 1, 75 DAA, 2 g ai/ha) | Frequency 1/1 (0%) (Table 1, 90 DAA, 2 g ai/ha)
11.3%: % Referring to Scale (Table 1, 75 DAA, 10 g ai/ha) | % Referring to Scale (Table 1, 90 DAA, 5 g ai/ha)
15.0%: Frequency 1/1 (0%) (Table 1, 90 DAA, 20 g ai/ha) | Frequency 1/1 (0%) (Table 1, 120 DAA, 5 g ai/ha)
14.3%: % Referring to Scale (Table 1, 90 DAA, 10 g ai/ha)
32.5%: Frequency 1/1 (0%) (Table 1, 75 DAA, 15 g ai/ha)
70.0%: Frequency 2/1 (15%) (Table 1, 75 DAA, 20 g ai/ha)
5.0%: Frequency 3/1 (30%) (Table 1, 75 DAA, 5 g ai/ha) | Frequency 3/1 (30%) (Table 1, 90 DAA, 20 g ai/ha)
92.5%: Frequency 2/1 (15%) (Table 1, 90 DAA, 15 g ai/ha) | Frequency 2/1 (15%) (Table 1, 120 DAA, 2 g ai/ha) | Frequency 2/1 (15%) (Table 1, 120 DAA, 10 g ai/ha) | Frequency 2/1 (15%) (Table 1, 120 DAA, 15 g ai/ha)
87.5%: Frequency 2/1 (15%) (Table 1, 75 DAA, 5 g ai/ha) | Frequency 2/1 (15%) (Table 1, 90 DAA, 2 g ai/ha)
90.0%: Frequency 2/1 (15%) (Table 1, 90 DAA, 10 g ai/ha)
25.0%: Frequency 1/1 (0%) (Table 1, 75 DAA, 10 g ai/ha) | Frequency 1/1 (0%) (Table 1, 90 DAA, 5 g ai/ha)
13.1%: % Referring to Scale (Table 1, 90 DAA, 2 g ai/ha)
7.5%: Frequency 1/1 (0%) (Table 1, 75 DAA, 5 g ai/ha) | Frequency 1/1 (0%) (Table 1, 90 DAA, 10 g ai/ha) | Frequency 1/1 (0%) (Table 1, 90 DAA, 15 g ai/ha) | Frequency 1/1 (0%) (Table 1, 120 DAA, 2 g ai/ha) | Frequency 1/1 (0%) (Table 1, 120 DAA, 10 g ai/ha) | Frequency 1/1 (0%) (Table 1, 120 DAA, 15 g ai/ha)
75.0%: Frequency 2/1 (15%) (Table 1, 75 DAA, 10 g ai/ha) | Frequency 2/1 (15%) (Table 1, 90 DAA, 5 g ai/ha)
2.5%: Frequency 3/1 (30%) (Table 1, 75 DAA, 2 g ai/ha) | Frequency 3/1 (30%) (Table 1, 90 DAA, 10 g ai/ha)
